Laboratory results published in ChEMBL document CHEMBL5154900, “Design and Synthesis of Dual EZH2/BRD4 Inhibitors to Target Solid Tumors” (J Med Chem, 2022).
The source made the active and inactive calls. No cut-off for these calls is given here.

How the values were obtained:
[1] = target: T1, Bromodomain-containing protein 4 (Homo sapiens, UniProt O60885); assay: Displacement of fluorescein-labeled JQ1 from His6/TEV cleavage site fused human BRD4 (residues N44 to E168) expressed in Escherichia coli BL21 (DE3) incubated for 60 min by Fluorescence polarization assay
[2] = target: T2, Histone-lysine N-methyltransferase EZH2 (Homo sapiens, UniProt Q15910)
Target sequence in this assay (Q15910 whole entry): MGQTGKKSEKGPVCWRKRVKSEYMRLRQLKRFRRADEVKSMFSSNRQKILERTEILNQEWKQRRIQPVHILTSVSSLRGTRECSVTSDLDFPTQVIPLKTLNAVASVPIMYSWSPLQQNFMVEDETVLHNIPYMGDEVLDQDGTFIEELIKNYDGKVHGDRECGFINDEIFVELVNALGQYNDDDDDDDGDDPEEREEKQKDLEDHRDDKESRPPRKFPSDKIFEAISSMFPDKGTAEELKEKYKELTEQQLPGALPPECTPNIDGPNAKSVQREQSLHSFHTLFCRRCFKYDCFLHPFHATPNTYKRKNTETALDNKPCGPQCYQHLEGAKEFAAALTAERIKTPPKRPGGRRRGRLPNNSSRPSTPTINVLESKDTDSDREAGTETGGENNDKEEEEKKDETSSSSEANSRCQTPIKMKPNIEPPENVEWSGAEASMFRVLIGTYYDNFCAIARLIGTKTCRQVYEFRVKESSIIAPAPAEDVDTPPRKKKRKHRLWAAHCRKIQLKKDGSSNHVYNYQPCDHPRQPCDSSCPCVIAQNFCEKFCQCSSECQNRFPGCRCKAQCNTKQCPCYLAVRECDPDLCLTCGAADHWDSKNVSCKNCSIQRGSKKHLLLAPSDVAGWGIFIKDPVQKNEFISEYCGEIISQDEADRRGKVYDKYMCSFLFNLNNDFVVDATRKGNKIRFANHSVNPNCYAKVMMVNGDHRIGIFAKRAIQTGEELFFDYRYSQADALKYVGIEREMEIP

ASPC1 = assay: Antiproliferative activity against human ASPC1 cells assessed as cell growth inhibition incubated for 6 days by MTS assay; type: functional, cell-based; conditions: ASPC1, 144 h
HCT-116 = assay: Induction of apoptosis in human HCT116 cells assessed as early apoptotic cells at 10 uM measured after 72 hrs by flow cytometry (reference value: 2.8 %); type: functional
[3] = target: T2, Histone-lysine N-methyltransferase EZH2; assay: Inhibition of EZH2 in human ASPC1 cells assessed as decrease in H3K27me3 levels at 1 uM incubated for 72 hrs by Western blot analysis; type: cell-based
Target sequence in this assay (Q15910 whole entry, looked up): as the sequence (Q15910 whole entry) above

[4] = target: T1, Bromodomain-containing protein 4; assay: Inhibition of BRD4 in human ASPC1 cells assessed as decrease in c-Myc level at 1 uM incubated for 72 hrs by Western blot analysis; type: cell-based

## CCN(c1cc(-c2ccc(NC(=O)CCCCCCCNC(=O)C[C@@H]3N=C(c4ccc(Cl)cc4)c4c(sc(C)c4C)-n4c(C)nnc43)cc2)cc(C(=O)NCc2c(C)cc(C)[nH]c2=O)c1C)C1CCOCC1
[1]
  IC50: 2340 nM
[2]
  IC50: 550 nM
ASPC1; read-out: IC50
  IC50: 17500 nM

## Cc1sc2c(c1C)C(c1ccc(Cl)cc1)=N[C@@H](CC(=O)OC(C)(C)C)c1nnc(C)n1-2
HCT-116
  Activity: 20.3%
ASPC1
  IC50: 3390 nM

## CCN(c1cc(-c2ccc(NC(=O)CCCCCCNC(=O)C[C@@H]3N=C(c4ccc(Cl)cc4)c4c(sc(C)c4C)-n4c(C)nnc43)cc2)cc(C(=O)NCc2c(C)cc(C)[nH]c2=O)c1C)C1CCOCC1
[1]
  IC50: 580 nM
[2]
  IC50: 530 nM
ASPC1; read-out: IC50
  IC50: 11200 nM

## CCN(c1cc(-c2ccc(NC(=O)C[C@@H]3N=C(c4ccc(Cl)cc4)c4c(sc(C)c4C)-n4c(C)nnc43)cc2)cc(C(=O)NCc2c(C)cc(C)[nH]c2=O)c1C)C1CCOCC1
[1]
  IC50: 2840 nM
[2]
  IC50: 16100 nM
ASPC1; read-out: IC50
  IC50: 13800 nM

## CCN(c1cc(-c2ccc(CNC(=O)C[C@@H]3N=C(c4ccc(Cl)cc4)c4c(sc(C)c4C)-n4c(C)nnc43)cc2)cc(C(=O)NCc2c(C)cc(C)[nH]c2=O)c1C)C1CCOCC1
[1]
  IC50: 1480 nM
[2]
  IC50: 29800 nM
[3]
  inhibition: Active
ASPC1; read-out: IC50
  IC50: 6500 nM

## CCN(c1cc(-c2ccc(CN3CCOCC3)cc2)cc(C(=O)NCc2c(C)cc(C)[nH]c2=O)c1C)C1CCOCC1 [TAZEMETOSTAT]
HCT-116
  Activity: 2.8%
ASPC1; read-out: IC50
  IC50: > 30000 nM

## CCN(c1cc(-c2ccc(OCCCNC(=O)C[C@@H]3N=C(c4ccc(Cl)cc4)c4c(sc(C)c4C)-n4c(C)nnc43)cc2)cc(C(=O)NCc2c(C)cc(C)[nH]c2=O)c1C)C1CCOCC1
[1]
  IC50: 1720 nM
[2]
  IC50: 980 nM
[4]
  inhibition: Active
ASPC1; read-out: IC50
  IC50: 1370 nM

## CCN(c1cc(-c2ccc(C(=O)NCCOCCNC(=O)C[C@@H]3N=C(c4ccc(Cl)cc4)c4c(sc(C)c4C)-n4c(C)nnc43)cc2)cc(C(=O)NCc2c(C)cc(C)[nH]c2=O)c1C)C1CCOCC1
[1]
  IC50: 248 nM
[2]
  IC50: 300 nM
[3]
  inhibition: Active
ASPC1; read-out: IC50
  IC50: 7090 nM

## CCN(c1cc(-c2ccc(OCCNC(=O)C[C@@H]3N=C(c4ccc(Cl)cc4)c4c(sc(C)c4C)-n4c(C)nnc43)cc2)cc(C(=O)NCc2c(C)cc(C)[nH]c2=O)c1C)C1CCOCC1
[1]
  IC50: 1540 nM
[2]
  IC50: 7550 nM
[4]
  inhibition: Active
ASPC1; read-out: IC50
  IC50: 1860 nM

## CCN(c1cc(-c2ccc(CCNC(=O)C[C@@H]3N=C(c4ccc(Cl)cc4)c4c(sc(C)c4C)-n4c(C)nnc43)cc2)cc(C(=O)NCc2c(C)cc(C)[nH]c2=O)c1C)C1CCOCC1
[1]
  IC50: 945 nM
[2]
  IC50: 77800 nM
[3]
  inhibition: Active
ASPC1; read-out: IC50
  IC50: 2610 nM

## CCN(c1cc(-c2ccc(NC(=O)CCOCCOCCOCCNC(=O)C[C@@H]3N=C(c4ccc(Cl)cc4)c4c(sc(C)c4C)-n4c(C)nnc43)cc2)cc(C(=O)NCc2c(C)cc(C)[nH]c2=O)c1C)C1CCOCC1
[1]
  IC50: 604 nM
[2]
  IC50: 1040 nM
ASPC1; read-out: IC50
  IC50: 9250 nM

## CCN(c1cc(-c2ccc(OCCCCNC(=O)C[C@@H]3N=C(c4ccc(Cl)cc4)c4c(sc(C)c4C)-n4c(C)nnc43)cc2)cc(C(=O)NCc2c(C)cc(C)[nH]c2=O)c1C)C1CCOCC1
[1]
  IC50: 82 nM
[2]
  IC50: 420 nM
[4]
  inhibition: Active
[3]
  inhibition: Active
ASPC1; read-out: IC50
  IC50: 990 nM
